# Laboratory results as given in US9439918B2 (priority 2008, dated 2016).
# Like-named read-outs stand apart in the source and are kept apart here.
# How the values were obtained:
# [1] = system: Salmonella spp. (20); assay: MIC, CLSI broth microdilution; format: cell-based; conditions: for MIC50 / MIC90: Salmonella; for MIC Range / MIC 50% / MIC 90%: Salmonella spp.; for % by category resistant / % by category susceptible: CLSI 2008 criteria
# [2] = system: intraphagocytic L. pneumophila ATCC 33153; format: cell-based, Legionella pneumophila; conditions: for Emax, CFU decrease from original inoculum: 48 h; for Emax, Δ log10 CFU at 24 h compared to the post-phagocytosis inoculum: L.p., intracellular
# [3] = system: intraphagocytic L. monocytogenes EGD; format: cell-based, Listeria monocytogenes; conditions: for Emax, CFU decrease from original inoculum: 24 h
# [4] = system: Shigella spp. (40); assay: MIC, CLSI broth microdilution; format: cell-based; conditions: for % by category resistant / % by category susceptible: CLSI 2008 criteria
# [5] = system: H. pylori (23); assay: MIC, agar dilution / Etest
# [6] = system: C. jejuni (20); assay: MIC, agar dilution / Etest; conditions: for MIC50 / MIC90: Campylobacter jejuni; for MIC50: read-out: MIC 50% (Etest); for MIC90: read-out: MIC 90% (Etest)
# [7] = system: streptococci; assay: MIC50 against Gram-positive cocci; format: cell-based
# [8] = system: L. pneumophila ATCC 33153; format: cell-based, Legionella pneumophila
# [9] = system: staphylococci; assay: MIC50 against Gram-positive cocci; format: cell-based
# [10] = Helicobacter pylori, read-out: MIC 50% (Etest)
# [11] = C. jejuni, 20 strains, agar dilution
molecule,measurement,setting,value
"CC[C@H]1OC(=O)[C@H](C)[C@@H](O[C@H]2C[C@@](C)(OC)[C@@H](O)[C@H](C)O2)[C@H](C)[C@@H](O[C@@H]2O[C@H](C)C[C@H](N(C)C)[C@H]2O)[C@](C)(O)C[C@@H](C)CN(C)[C@H](C)[C@@H](O)[C@]1(C)O [AZI, azithromycin]",MIC50,[1],4 µg/mL
same,MIC90,[1],8 µg/mL
same,MIC Range,[1]; 20 strains,2 to 8 µg/mL
same,MIC Range,"[1]; 20 strains, listed as AZ",2-8 (AZ) μg/ml
same,"Emax, CFU decrease from original inoculum",[2],−0.83 log10 units
same,"Emax, Δ log10 CFU at 24 h compared to the post-phagocytosis inoculum",[2],−0.83 Δ log10 CFU
same,"Emax, Δ log10 CFU at 24 h compared to the post-phagocytosis inoculum",[3],−0.81 Δ log10 CFU
same,"Emax, CFU decrease from original inoculum",[3],−0.81 log10 units
same,MIC50,"[4]; Shigella spp., 40 strains",4 µg/mL
same,MIC90,"[4]; Shigella spp., 40 strains",8 µg/mL
CC1(C)S[C@@H]2[C@H](NC(=O)[C@H](N)c3ccccc3)C(=O)N2[C@H]1C(=O)O [Ampicillin],MIC50,[5]; [10],≤ 0.015 µg/mL
"CC[C@H]1OC(=O)[C@@](C)(F)C(=O)[C@H](C)[C@@H](OC2OC(C)CC(N(C)C)C2O)[C@@](C)(OC)C[C@@H](C)C(=O)[C@H](C)[C@H]2N(CCCCn3cc(-c4cccc(N)c4)nn3)C(=O)O[C@]12C (some centres unmarked) [CEM-101, 11-N-4-(3-aminophenyl)-[1,2,3]triazol-1-yl]-butyl-5-desosaminyl-3-oxo-2-fluoro-erythronolide A,-11,12-cyclic carbamate]",No. of strains at MIC 0.06,"[1]; MIC distribution, 20 strains",0
same,No. of strains at MIC 0.12,"[1]; MIC distribution, 20 strains",0
same,No. of strains at MIC 0.25,"[1]; MIC distribution, 20 strains",0
same,No. of strains at MIC 0.5,"[1]; MIC distribution, 20 strains",0
same,No. of strains at MIC 1,"[1]; MIC distribution, 20 strains",3
same,No. of strains at MIC 2,"[1]; MIC distribution, 20 strains",4
same,No. of strains at MIC 4,"[1]; MIC distribution, 20 strains",4
same,No. of strains at MIC 8,"[1]; MIC distribution, 20 strains",4
same,No. of strains at MIC ≦0.03,"[1]; MIC distribution, 20 strains",0
same,No. of strains at MIC ≧16,"[1]; MIC distribution, 20 strains",5
same,MIC 50%,[1]; 20 strains,4 µg/mL
same,MIC 90%,[1]; 20 strains,>16 µg/mL
same,MIC 50%,[6]; [11],1 µg/mL
same,MIC 90%,[6]; [11],4 µg/mL
same,No. of strains at MIC 0.06,"[6]; MIC distribution, 20 strains",0
same,No. of strains at MIC 0.12,"[6]; MIC distribution, 20 strains",0
same,No. of strains at MIC 0.25,"[6]; MIC distribution, 20 strains",0
same,No. of strains at MIC 0.5,"[6]; MIC distribution, 20 strains",0
same,No. of strains at MIC 1,"[6]; MIC distribution, 20 strains",10
same,No. of strains at MIC 2,"[6]; MIC distribution, 20 strains",0
same,No. of strains at MIC 4,"[6]; MIC distribution, 20 strains",8
same,No. of strains at MIC 8,"[6]; MIC distribution, 20 strains",2
same,No. of strains at MIC ≦0.03,"[6]; MIC distribution, 20 strains",0
same,No. of strains at MIC ≧16,"[6]; MIC distribution, 20 strains",0
same,MIC50,[7],0.015 µg/mL
same,"Emax, CFU decrease from original inoculum",[2],−1.03 log10 units
same,"Emax, Δ log10 CFU at 24 h compared to the post-phagocytosis inoculum",[2],−1.03 Δ log10 CFU
same,"Emax, Δ log10 CFU at 24 h compared to the post-phagocytosis inoculum",[3],−0.66 Δ log10 CFU
same,"Emax, CFU decrease from original inoculum",[3],−0.66 log10 units
same,MIC,[8]; conventional susceptibility testing,0.004 µg/mL
same,MIC,"[8]; pH-adjusted broth, pH 6.5",0.01 µg/mL
same,MIC,"[8]; pH-adjusted broth, pH 7.4",0.005 µg/mL
same,No. of strains at MIC 0.06,"[4]; MIC distribution, 40 strains",0
same,No. of strains at MIC 0.12,"[4]; MIC distribution, 40 strains",0
same,No. of strains at MIC 0.25,"[4]; MIC distribution, 40 strains",0
same,No. of strains at MIC 0.5,"[4]; MIC distribution, 40 strains",0
same,No. of strains at MIC 1,"[4]; MIC distribution, 40 strains",2
same,No. of strains at MIC 2,"[4]; MIC distribution, 40 strains",0
same,No. of strains at MIC 4,"[4]; MIC distribution, 40 strains",14
same,No. of strains at MIC 8,"[4]; MIC distribution, 40 strains",18
same,No. of strains at MIC ≦0.03,"[4]; MIC distribution, 40 strains",0
same,No. of strains at MIC ≧16,"[4]; MIC distribution, 40 strains",6
same,MIC 50%,"[4]; Shigella spp., 40 strains",8 µg/mL
same,MIC 90%,"[4]; Shigella spp., 40 strains",16 µg/mL
same,MIC50,[9],0.06 µg/mL
"CC[C@H]1OC(=O)[C@H](C)[C@@H](O[C@H]2C[C@@](C)(OC)[C@@H](O)[C@H](C)O2)[C@H](C)[C@@H](O[C@@H]2O[C@H](C)C[C@H](N(C)C)[C@H]2O)[C@](C)(OC)C[C@@H](C)C(=O)[C@H](C)[C@@H](O)[C@]1(C)O [CLR, clarithromycin]",MIC50,[1],0.015 µg/mL
same,MIC90,[1],> 16 µg/mL
same,MIC Range (Etest),"[6]; C. jejuni, 20 strains",1 to 8 µg/mL
same,MIC Range (Etest),"[6]; C. jejuni, 20 strains, listed as CLA",1-8 (CLA) μg/ml
same,MIC50,[6],2 µg/mL
same,MIC90,[6],4 µg/mL
same,% by category resistant,[5]; CLSI 2008 criteria,8.7%
same,% by category susceptible,[5]; CLSI 2008 criteria,91.3%
same,MIC50,[5]; Helicobacter pylori,0.03 µg/mL
same,MIC90,[5]; Helicobacter pylori,0.12 µg/mL
same,MIC50,[5]; [10],≤ 0.015 µg/mL
same,"Emax, Δ log10 CFU at 24 h compared to the post-phagocytosis inoculum",[2],−0.71 Δ log10 CFU
same,MIC50,"[4]; Shigella spp., 40 strains",> 16 µg/mL
same,MIC90,"[4]; Shigella spp., 40 strains",> 16 µg/mL
C=CC1=C(C(=O)O)N2C(=O)[C@@H](NC(=O)/C(=N\O)c3csc(N)n3)[C@H]2SC1 [Cefdinir],% by category resistant,[1],0.0%
same,% by category susceptible,[1],100.00%
same,MIC50,[1],0.25 µg/mL
same,MIC90,[1],0.5 µg/mL
same,% by category resistant,[4],0.0%
same,% by category susceptible,[4],100.0%
same,MIC50,"[4]; Shigella spp., 40 strains",0.25 µg/mL
same,MIC90,"[4]; Shigella spp., 40 strains",0.25 µg/mL
CCC[C@@H]1C[C@@H](C(=O)N[C@@H]([C@H]2O[C@H](SC)[C@H](O)[C@@H](O)[C@H]2O)[C@H](C)Cl)N(C)C1 [Clindamycin],MIC50,"[4]; Shigella spp., 40 strains",> 4 µg/mL
same,MIC90,"[4]; Shigella spp., 40 strains",> 4 µg/mL
CC[C@H]1OC(=O)[C@H](C)[C@@H](O[C@H]2C[C@@](C)(OC)[C@@H](O)[C@H](C)O2)[C@H](C)[C@@H](O[C@@H]2O[C@H](C)C[C@H](N(C)C)[C@H]2O)[C@](C)(O)C[C@@H](C)C(=O)[C@H](C)[C@@H](O)[C@]1(C)O [Erythromycin],MIC50,[1],> 4 µg/mL
same,MIC90,[1],> 4 µg/mL
same,MIC Range (Etest),"[6]; C. jejuni, 20 strains",0.5 to 4 µg/mL
same,MIC50,[6],2 µg/mL
same,MIC90,[6],4 µg/mL
same,MIC50,"[4]; Shigella spp., 40 strains",> 4 µg/mL
same,MIC90,"[4]; Shigella spp., 40 strains",> 4 µg/mL
"C[C@H]1COc2c(N3CCN(C)CC3)c(F)cc3c(=O)c(C(=O)O)cn1c23 [Levofloxacin, levofloxacin]",% by category resistant,[1],0.0%
same,% by category susceptible,[1],95.0%
same,MIC50,[1],≤ 0.12 µg/mL
same,MIC90,[1],1 µg/mL
same,% by category resistant,[4],0.0%
same,% by category susceptible,[4],100.0%
same,MIC50,"[4]; Shigella spp., 40 strains",≤ 0.12 µg/mL
same,MIC90,"[4]; Shigella spp., 40 strains",≤ 0.12 µg/mL
Cc1ncc([N+](=O)[O-])n1CCO [Metronidazole],MIC Range (Etest),"[5]; H. pylori, eight strains, Etest",0.06 to 64 µg/mL
same,MIC50,[5]; [10],0.5 µg/mL
"CC[C@H]1OC(=O)[C@H](C)C(=O)[C@H](C)[C@@H](O[C@@H]2O[C@H](C)C[C@H](N(C)C)[C@H]2O)[C@](C)(OC)C[C@@H](C)C(=O)[C@H](C)[C@H]2N(CCCCn3cnc(-c4cccnc4)c3)C(=O)O[C@]12C [TEL, telithromycin]",MIC50,[1],8 µg/mL
same,MIC90,[1],> 16 µg/mL
same,"Emax, Δ log10 CFU at 24 h compared to the post-phagocytosis inoculum",[2],−0.63 Δ log10 CFU
same,MIC50,"[4]; Shigella spp., 40 strains",16 µg/mL
same,MIC90,"[4]; Shigella spp., 40 strains",16 µg/mL
CN(C)[C@@H]1C(O)=C(C(N)=O)C(=O)[C@@]2(O)C(O)=C3C(=O)c4c(O)cccc4[C@@](C)(O)[C@H]3C[C@@H]12 [Tetracycline],MIC Range (Etest),"[6]; C. jejuni, 20 strains",0.06 to 256 µg/mL
same,MIC50,[6],64 µg/mL
same,MIC90,[6],> 256 µg/mL
same,MIC50,[5]; [10],0.06 µg/mL
Amoxicillin-clavulanate,% by category resistant,[1],0.0%
same,% by category susceptible,[1],95.0%
same,MIC 50%,[1]; 20 strains,2 µg/mL
same,MIC 90%,[1]; 20 strains,8 µg/mL
same,% by category resistant,[4],0.0%
same,% by category susceptible,[4],72.5%
same,MIC 50%,"[4]; Shigella spp., 40 strains",8 µg/mL
same,MIC 90%,"[4]; Shigella spp., 40 strains",>8 µg/mL
Quinupristin-dalfopristin,MIC 50%,[1]; 20 strains,>4 µg/mL
same,MIC 90%,[1]; 20 strains,>4 µg/mL
same,MIC 50%,"[4]; Shigella spp., 40 strains",>4 µg/mL
same,MIC 90%,"[4]; Shigella spp., 40 strains",>4 µg/mL
same,MIC Range,"[4]; Shigella spp., 40 strains",>4 µg/mL
Trimethoprim-sulfamethoxazole [Trim-sulfa],% by category resistant,[1],0.0%
same,% by category susceptible,[1],100.00%
same,MIC 50%,[1]; 20 strains,≦0.25 μg/ml
same,MIC 90%,[1]; 20 strains,≦0.25 μg/ml
same,MIC Range,[1]; 20 strains,≦0.25 μg/ml
same,% by category resistant,[4],62.5%
same,% by category susceptible,[4],37.5%
same,MIC 50%,"[4]; Shigella spp., 40 strains",>4 µg/mL
same,MIC 90%,"[4]; Shigella spp., 40 strains",>4 µg/mL
